Source: the supplement of paper PMC3974653
Where a name gives a salt, the structure may show the parent alone.

Tested on: MTT (mouse pheochromocytoma)
Assay: IC50 of cell viability (ATP content)
Conditions: (24 or 48 h)
In short: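 MTT mouse pheochromocytoma cells, cultured overnight at 37°C, 5% CO2 in DMEM with 5% FBS and 1% horse serum, were exposed in white 1536-well plates to library compounds in DMSO at final 0.5 nM to 46 µM (8 concentrations) for 24 or 48 hrs. CellTiter-Glo luminescence was normalised to positive-control (100%) and DMSO (0%) wells. A four-parameter logistic fit gave the IC50.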

Structure (SMILES) | IC50 of cell viability
CCCCOC(=O)c1ccc(N)cc1 [BUTAMBEN] | > 46 µM
CCCCCN(CCCCC)C(=O)C(CCC(=O)[O-])NC(=O)c1ccc(Cl)c(Cl)c1.[Na+] (stereo not drawn) [LORGLUMIDE SODIUM] | > 46 µM
N[S+](=O)([O-])c1cc2c(cc1Cl)N[C@H](Cc1ccccc1)N[S+]2(=O)[O-] [Benzylhydrochlorothiazide] | > 46 µM
CC[N+](C)(C)c1cccc(O)c1 [Edrophonium chloride] | > 46 µM
CC/C=C(\C(=O)N[C@H]1C(=O)N2C(C(=O)OCOC(=O)C(C)(C)C)=C(COC(N)=O)CS[C@H]12)c1csc(N)n1 [Cefcapene pivoxil hydrochloride] | > 46 µM
CCN(CC)CCOc1ccc(Cc2ccccc2)cc1 [N,N-DIETHYL-2-[4-(PHENYLMETHYL)PHENOXY]ETHANAMINE] | > 46 µM
Oc1cn2c(n1)Nc1ccc(Cl)c(Cl)c1C2 [ANAGRELIDE HYDROCHLORIDE] | > 46 µM
CN(C)C(=O)CCSC(SCCC(=O)[O-])c1cccc(/C=C/c2ccc3ccc(Cl)cc3n2)c1 (stereo not drawn) [MK-571] | > 46 µM
CCC(=O)O[C@@](Cc1ccccc1)(c1ccccc1)[C@@H](C)CN(C)C.O=[S+]([O-])(O)c1ccc2ccccc2c1 [Levopropoxyphene napsylate] | > 46 µM
CC(C)(C)c1ccc(C(O)CCCN2CCC(C(O)(c3ccccc3)c3ccccc3)CC2)cc1 (stereo not drawn) [Terfenadine] | > 46 µM
Oc1cccc2cccnc12 [8-Hydroxyquinoline] | > 46 µM
O=P([O-])([O-])OC[C@@H](O)CO [POTASSIUM GLYCEROPHOSPHATE] | > 46 µM
CN1CCC(Nc2ncc3ncnc(Nc4ccc(F)c(Cl)c4)c3n2)CC1 [BIBX 1382 dihydrochloride] | > 46 µM
CCCC1([C@H](O)C/C=C/[C@H]2[C@H](O)CC(=O)[C@@H]2CCCCCCC(=O)OC)CCC1 [(R)-Butaprost] | > 46 µM
CCCCC/C(C=O)=C/c1ccccc1 [AMYL CINNAMAL] | > 46 µM
CC(C(O)c1ccc(O)cc1)N1CCC(Cc2ccccc2)CC1 (stereo not drawn) [IFENPRODIL] | > 46 µM
Cc1cc(-c2ccc(/N=N/c3ccc4c([S+](=O)([O-])O)cc([S+](=O)([O-])O)c(N)c4c3O)c(C)c2)ccc1/N=N/c1ccc2c([S+](=O)([O-])O)cc([S+](=O)([O-])O)c(N)c2c1O [C.I. Direct Blue 53] | > 46 µM
C[C@H](CCC(=O)O)[C@H]1CC[C@@H]2[C@H]3[C@@H](C[C@@H](O)[C@]21C)[C@]1(C)CC[C@H](O)C[C@@H]1C[C@@H]3O [Cholic Acid] | > 46 µM
O\C1=C(/C/C2=C(\O)C3=C(OC2=O)C=CC=C3)C(=O)OC4=C1C=CC=C4 [Dicumarol] | > 46 µM
CC(=O)Nc1cccc(O)c1 [METACETAMOL] | > 46 µM
CCOC(=O)[N-]c1c[n+](N2CCOCC2)no1 [Molsidomine] | > 46 µM

Structure (SMILES) | IC50 of cell viability
CCCN1CCC[C@@H]2Cc3nc(N)ncc3C[C@H]21 [LY-163,502] | > 46 µM
CCN(CC)CCc1nc(-c2ccccc2)no1.O=C(O)CC(O)(CC(=O)O)C(=O)O [Oxalamine citrate salt] | > 46 µM
Oc1ncnc2[nH]ncc12 [Allopurinol] | > 46 µM
CN1C(=O)C[C@@H](C(=O)N[C@@H](Cc2c[nH]cn2)C(=O)N2CCC[C@H]2C(N)=O)NC1=O [TALTIRELIN HYDRATE] | > 46 µM
Clc1ccc([C@@H](OCCN2CCCCC2)c2ccccc2)cc1 [Cloperastine hydrochloride] | > 46 µM
O=C([O-])c1ccccc1-c1c2cc(Br)c(=O)c(Br)c-2oc2c(Br)c([O-])c(Br)cc12 [EOSINE YELLOWISH] | > 46 µM
OC(=O)C(CC/1=C/C(=O)NC2=CC=CC=C12)NC(=O)C3=CC=C(Cl)C=C3 (stereo not drawn) [REBAMIPIDE] | > 46 µM
COC(=O)C(c1ccccc1Cl)N1CCc2sccc2C1 (stereo not drawn) [CLOPIDOGREL BISULFATE] | > 46 µM
[H][C@]1(\C=C(/Cl)Cl)[C@]([H])(C(=O)OCC2=C(F)C(F)=CC(F)=C2F)C1(C)C [TRANSFLUTHRIN] | > 46 µM
N[C@@H](CO)C(=O)NNCc1ccc(O)c(O)c1O [Benserazide hydrochloride] | > 46 µM
CN1C(=O)CC[S+](=O)([O-])C1c1ccc(Cl)cc1 (stereo not drawn) [Chlormezanone] | > 46 µM
CC1(C)C(/C=C/C=C/C=C/C=C2\N(CCCCS(=O)(=O)[O-])c3ccc4ccccc4c3C2(C)C)=[N+](CCCCS(=O)(=O)[O-])c2ccc3ccccc3c21 [INDOCYANINE GREEN] | > 46 µM
Nc1nc(N)nc(NC2CC2)n1 [CYROMAZINUM] | > 46 µM
CN1[C@@H]2CC[C@H]1CC(OC(=O)C(CO)c1ccccc1)C2 (stereo partly drawn) [Atropine] | > 46 µM
OC(C#CCN1CCCC1)(c1ccccc1)c1ccccc1 [Butinolina] | > 46 µM
CCN(CC)C(=O)c1ccc(O)c(OC)c1 [Ethamivan] | > 46 µM
C[C@@]12CC[C@H]3[C@@H](CC[C@@H]4C[C@H]5S[C@H]5C[C@]43C)[C@H]1CC[C@H]2O [Epitiostanol] | > 46 µM
O=[S+]1([O-])OC(c2ccc(O)cc2)(c2ccc(O)cc2)c2ccccc21 [Fenolipuna] | > 46 µM
C\C1=C(\[N@]2[C@@H](SC1)[C@H](NC(=O)[C@@H](N)C3=CC=C(O)C=C3)C2=O)C(O)=O [Cefadroxil] | > 46 µM
CCOC(=O)CN[C@@H](C(=O)N1CC[C@H]1C(=O)NCc1ccc(/C(N)=N/O)cc1)C1CCCCC1 [Ximelagatran] | > 46 µM
N[S+](=O)([O-])c1cc(-c2nnn[nH]2)c(NCc2cccs2)cc1Cl [AZOSEMIDE] | > 46 µM

Structure (SMILES) | IC50 of cell viability
O=C(O)Cc1ccccc1 [a-Toluic acid] | > 46 µM
Cn1c([N+](=O)[O-])cnc1COC(N)=O [RONIDAZOLE] | > 46 µM
CCc1ccc(CCOc2ccc(CC3SC(=O)NC3=O)cc2)nc1.Cl (stereo not drawn) [PIOGLITAZONE HYDROCHLORIDE] | > 46 µM
CCOC(=O)C(CCc1ccccc1)NC(C)C(=O)N1Cc2ccccc2CC1C(=O)O.Cl (stereo not drawn) [QUINAPRIL HYDROCHLORIDE] | > 46 µM
CN1C(=O)/C(=N\NC(N)=S)c2ccccc21 [METISAZONUM] | > 46 µM
C=C1CC2C3C=C(C)C4=CC(=O)CCC4(C)C3CCC2(C)[C@@]1(OC(C)=O)C(C)=O (stereo partly drawn) | > 46 µM
COc1ccc2[nH]cc(CCN(C(C)C)C(C)C)c2c1 [5-Methoxy-N,N-diisopropyltryptamine] | > 46 µM
CC(C)=CCOC1=C2OC(=O)\C=C/C2=CC3=C1OC=C3 [IMPERATORIN] | > 46 µM
COc1ccc(/C=C/C(=O)O)cc1 [DIETHANOLAMINE METHOXYCINNAMATE] | > 46 µM
O[C@H]1[C@H]2[C@H](O)CCCN2C[C@H]1O [TRIDOLGOSIRUM] | > 46 µM
CN(C)C(=O)Nc1ccc(Cl)c(Cl)c1 [DIURON] | > 46 µM
CCCCNc1cc(C(=O)O)cc([S+](N)(=O)[O-])c1Oc1ccccc1 [Bumetanide] | > 46 µM
C=CCN1CC[C@]23CCCCC2[C@H]1Cc1ccc(O)cc13 (stereo partly drawn) [LEVALLORPHAN] | > 46 µM
ClC1=CC=C2C(CCC3=C(N=CC=C3)\C2=C4\CCNCC4)=C1 [Desloratadine] | > 46 µM
CC(C)(C)NC[C@H](O)COc1cccc2c1CCC(=O)N2 [Carteolol hydrochloride] | > 46 µM
CC(=O)[C@H]1CC[C@H]2[C@@H]3CC[C@H]4C[C@H](O)CC[C@]4(C)[C@H]3C(=O)C[C@]12C [5alpha-Pregnan-3alpha-ol-11,20-dione] | > 46 µM
CCCOC(C(=O)OC1CCN(C)CC1)(c1ccccc1)c1ccccc1 [PROPIVERINE HYDROCHLORIDE] | > 46 µM
COC(=O)[C@H](Cc1ccccc1)NC(=O)[C@@H](N)CC(=O)O [Aspartame] | > 46 µM
FC1=CC=C(C=C1)C(=O)CCCN2CC\C(=C/C2)N3C(=O)NC4=C3C=CC=C4 [Droperidol] | > 46 µM
Cc1ccc2c(n1)Oc1ccc(C(C)C(=O)OCC(=O)N(C)C)cc1C2 (stereo not drawn) [Mepranoprofen arbamel] | > 46 µM
CC(CCc1ccccc1)NC(C)C(O)c1ccc(O)cc1 (stereo not drawn) [NYLIDRIN] | > 46 µM
